{"source": "patent US20140011755A1", "about": "“Cardiac Glycosides for Treating Autoimmune Disease” (Department of Veterans Affairs, priority 2010, published 2014)", "key": {"[1]": {"assay": "Serum concentration obtained with experimental dosing regimen, mouse", "format": "in vivo", "conditions": "0.3 mg/kg per diem, i.p., experimentally determined", "procedure": "Dosing regimens in humans vary according to the cardiac glycoside and constitution thereof. Table 3 depicts representative dosing regimens reported in the literature compared to experimental regiments used in mice that are representative of human dosing. Successful dosing detailed in this application includes but is not limited to 0.03-0.4 mg/kg., or from 0.001 to 5 mg/kg."}, "TNF, IL-6 and IL-1beta": {"test_system": "TNF, IL-6 and IL-1beta", "assay": "Serum cytokine ELISA in CIA treatment groups", "format": "in vivo", "conditions": "serum from 3 mice per treatment group, ELISA in triplicate", "description": "FIG. 9. Serum cytokine levels are similar between vehicle and cardiac glycoside treatment groups. […] The unpaired student t-test was used to assess significance."}, "CD40": {"target": "T1, CD40 (Mus musculus, UniProt P27512)", "T1 construct": "Peritoneal and bone marrow-derived macrophages were isolated from CIA mice; endogenous in cells; host or cells: peritoneal and bone marrow-derived macrophages from CIA mice", "T1 sequence (P27512 20-289)": "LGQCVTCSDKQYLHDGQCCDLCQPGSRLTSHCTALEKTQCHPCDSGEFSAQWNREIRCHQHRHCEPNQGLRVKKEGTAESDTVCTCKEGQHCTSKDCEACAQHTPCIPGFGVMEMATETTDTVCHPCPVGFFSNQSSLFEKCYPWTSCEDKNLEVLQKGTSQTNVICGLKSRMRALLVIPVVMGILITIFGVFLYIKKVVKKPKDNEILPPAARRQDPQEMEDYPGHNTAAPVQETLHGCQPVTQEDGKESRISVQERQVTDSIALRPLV", "format": "cell-based, mice", "conditions": "pre-treatment with 3.3 or 33 nM", "procedure": "(§1) Activity was monitored by ^3H-thymidine incorporation as a read-out for proliferation. […] Cell type(s) in the splenocyte population responsive to therapeutic concentrations of cardiac glycoside were determined by identifying the population of cells that responded to a dose-dependent decrease in activity in the presence of stimulant, defined as ligand(s) binding to cognate receptor(s). Activity was analyzed by: ^3H-thymidine or BrdU incorporation to monitor proliferation or by ELISA to monitor cytokine production. Splenic T lymphocytes were isolated by negative selection (MACS, Miltinyi Biotec) and are stimulated with PMA, ConA or through the TCR with anti-CD3/anti-CD28 Dynabeads (Invitrogen) and collagen II (all non-TNFR receptors/pathways). […] Peritoneal and bone marrow-derived macrophages were isolated from CIA mice in the presence of M-CSF growth factor and were stimulated with TNF and CD40 ligand (CD40L). […] Splenic B lymphocytes were isolated by negative selection (MACS, Miltinyi Biotec) and were stimulated with BAFF (BLyS), CD40L or through the BCR with anti-IgM u-chain specific antibodies."}, "BAFFR": {"test_system": "BAFFR", "assay": "BAFF-mediated stimulation of B cells", "format": "cell-based, mice", "conditions": "33 nM pre-treatment, BAFF 0.5 or 5 μg/ml", "procedure": "as §1"}, "phospho-STAT3 (Y705)": {"test_system": "phospho-STAT3 (Y705)", "assay": "STAT3 phosphorylation in cells from CIA mice (flow cytometry, Western blot)", "format": "cell-based", "conditions": "splenic B cells from CIA mice, 33 nM, 30 minutes / 0-60 minutes", "procedure": "FIG. 15. […] Flow cytometry was performed using the FACSAria II (Bectin Dickenson). […] Lysates were quantified for total protein using the Nanodrop, and verification was performed by BCA (Pierce). Lysates were loaded onto SDS-PAGE and transferred to PVDF (Millipore). Membranes were blotted for phospho-STAT3 (Y705) and beta-actin.\nCardiac glycosides were administered at endogenous levels (sub- and nano Molar) or therapeutic levels (nano Molar) to modulate transcription factor activity and gene expression. Alteration of STAT1 activity has been observed in Alzheimer's disease and susceptibility to lethal intracellular pathogenic diseases (Kitamura et al, 1997; Chapgier et al, 2009). Aberrant STAT2 levels have been linked to inflammatory disease such as Crohn's disease (CD), ulcerative colitis (UC) and inflammatory bowel disease (IBD), and cancers such as colorectal and skin cancers (Gamero et al, 2010). STAT3 signaling is a critical component of Th17-dependent autoimmune processes. […] Mice with targeted deletion of Stat3 in T cells are resistant to experimental autoimmune encephalomyelitis, which is a multiple sclerosis (MS) model. […] STAT phosphorylation can be assessed by phospho-flow cytometric analysis, Western immunoblot and ELISA of circulating PBMCs or of biopsied tissues."}, "MRL-Ipr splenic B cells": {"test_system": "MRL-Ipr splenic B cells", "assay": "ANA production by MRL-Ipr splenic B cells in vitro", "format": "cell-based, mice", "conditions": "2×10^5 vehicle-treated MRL-Ipr splenic B cells, 33 nM"}, "[2]": {"test_system": "naïve CD4+ T cells, regulatory T cells", "assay": "Mixed lymphocyte study, pre-treated CIA B cells with naïve CD4+ T cells", "format": "cell-based, mice", "conditions": "B cells treated 33 nM for 1 hr, co-culture 72 hr", "procedure": "FIG. 25. […] (A) Representative data from mixed lymphocyte studies. […] B cells were washed, replated in complete RPMI supplemented with BAFF (1 ng/mL), anti-CD3 antibody (4 μg/mL) and were added to 5×10^5 naïve CD4^+ T cells purified by MACS. Cells were incubated for 72 hr prior to harvest. IL-6, IL-10, TGFβ and IL-17 cytokine levels were measured by ELISA (R&D Systems, Peprotech, and eBiosciences). Data represent the average absorbance (A450) of triplicates and error bars represent the SEM. […] Cells were fixed in 4% paraformaldehyde for 15 minutes, washed twice with PBS and blocked with FACS buffer. Cells were stained for regulatory T cells using anti-TCRβ, anti-CD4, anti-CD25 and anti-FoxP3 antibodies (Cell Signaling Technologies, R&D Systems, AbCam). FACS was performed on the FACS Aria (Becton-Dickenson). Data represent the average population in 500,000 cells from 4 mice per treatment group. Error bars represent the SEM.\nIt is known that B cells can regulate T cell differentiation and in many states of autoimmune disease, an imbalance of Th1, Th2, and Th17 T cell populations exist. […] We performed studies to determine the regulatory effector function of B cells pre-treated with cardiac glycoside on T cell differentiation. […]"}, "[3]": {"conditions": "Human, oral; Smith, TW (1970); cited from earlier work"}}, "note": "Read-outs that look alike come from different tables or passages of the source.", "data": [{"smiles": "C[C@H]1O[C@@H](O[C@H]2[C@@H](O)C[C@H](O[C@H]3[C@@H](O)C[C@H](O[C@H]4CC[C@@]5(C)[C@H](CC[C@@H]6[C@@H]5CC[C@]5(C)[C@@H](C7=CC(=O)OC7)CC[C@]65O)C4)O[C@@H]3C)O[C@@H]2C)C[C@H](O)[C@@H]1O", "note": "[Digitoxin, digitoxin]", "values": [{"measurement": "Serum conc.", "setting": "[1]", "value": 19, "unit": "ng/mL"}, {"measurement": "Serum cytokine levels (TNF, IL-6 and IL-1beta) versus vehicle", "setting": "TNF, IL-6 and IL-1beta", "value": "similar"}, {"measurement": "CD40L-mediated activation of macrophage through CD40", "setting": "CD40", "value": "inhibits"}, {"measurement": "BAFF-mediated stimulation of B cells through BAFFR", "setting": "BAFFR", "value": "inhibited BAFF-mediated stimulation"}, {"measurement": "STAT3 phosphorylation (Y705)", "setting": "phospho-STAT3 (Y705)", "value": "stimulate STAT3 phosphorylation"}, {"measurement": "ANA production in vitro at 72 hours", "setting": "MRL-Ipr splenic B cells", "value": "blockade of autoantibody production"}, {"measurement": "induction of regulatory T cells in vitro", "setting": "[2]", "value": "induce regulatory T cells"}, {"measurement": "Serum conc.", "setting": "[3]", "value": 17, "unit": "ng/mL"}]}]}
